# Measurements reported in patent US20180289780A1, “OSTEOPONTIN AND THROMBIN-CLEAVED FRAGMENT THEREOF AND THEIR USE IN ATHEROSCLEROSIS PREVENTION, INFLAMMATION REDUCTION AND IMPROVING PLAQUE STABILITY” (CardioVax, LLC, priority 2017, published 2018).
# Tests used:
# [1] = system: ApoE-/- mice; experiment: Plasma cytokine levels (Bioplex multiplex) in immunized ApoE-/- mice on HFD; assay type: in vivo; conditions: mean ± SD
# Text: (§1) Female C57BL/6 Apoe^-/- mice (Jaxmice, USA) were immunized with tcOPN-PADRE or equal amounts of PADRE peptide using Alum (Pierce) as adjuvant, followed by two booster injections after two and five weeks (FIG. 1B). During the advanced study all mice received a final booster one weak prior to termination in order to analyze the effect on immune cells (FIG. 1B). Mice were fed a high-fat diet (HFD), 21% cocoa fat, 0.15% cholesterol, starting one week after the last booster injection. For early assessment of atherosclerosis mice were kept on HFD during 8 weeks before sacrifice. Mice that were allowed to develop a more advanced stage of atherosclerosis were kept on HFD during 15 weeks (FIG. 1B). For early atherosclerosis assessment two different lengths of immunized tcOPN-PADRE peptides (SEQ ID Nos: 6 and 7) were evaluated, while for advanced atherosclerosis assessment mice were immunized with shorter tcOPN-PADRE (SEQ ID No: 6) which was based on a tcOPN of 11 amino acids (SEQ ID NO: 4). Tissue was preserved as described previously. All animal experiments were approved by the Animal Care and Use Committee. Cytokine levels for IL-1β, IL-2, IL-4, IL-5, IL-6, IL-10, IL-13, IL-17, IL-12(p70), IFNγ, TNFα and MCP-1 were analyzed in plasma using Bioplex multiplex technology (Bio-Rad) according to manufacturer's protocol. Plasma levels for OPN and tcOPN were analyzed by ELISA according to manufacturer's protocol (IBL International). Plasma cholesterol was quantified colorimetrically using Infinity Cholesterol (ThermoTrace).
# [2] = system: tcOPN-PADRE peptide, PADRE peptide, tcOPN protein or OPN protein; experiment: Antibody ELISA on plasma of immunized mice; assay type: in vivo; conditions: plasma of immunized ApoE-/- mice
# Procedure: tcOPN-PADRE peptide, PADRE peptide, tcOPN protein or OPN protein was used for coating (20 μg/mL of each in PBS) microtiter plates (Nunc MaxiSorp, Nunc) over night at 4° C. Coated plates were washed with PBS with 0.05% Tween-20 and thereafter blocked with SuperBlock in Tris-buffered saline (TBS, Pierce) during 30 minutes at room temperature (RT) followed by an incubation of mouse plasma diluted 1:100 or 1:1000 in PBS-0.05% Tween-20 for 2 hours at RT. After rinsing, bound antibodies were detected using biotinylated goat anti-mouse IgGla or IgG2 antibodies (Jackson ImmunoResearch) that were incubated for 2 hours at RT. After washing, alkaline phosphatase-conjugated streptavidin (Sigma) was added and color reaction was developed using phosphatase substrate kit (Pierce). The absorbance (405 nm) was measured after 1 hour of incubation at room temperature. Mean values were calculated after subtraction of background absorbance.
# [3] = system: ApoE-/- mice; experiment: Atherosclerotic plaque area: en face descending aorta, aortic arch, subvalvular lesions; assay type: in vivo; conditions: additional early study, short peptide, HFD 8 weeks
# Text: as §1, with “All animal experiments were approved by the Animal Care and Use Committee.” left out, “Plasma cholesterol was quantified colorimetrically using Infinity Cholesterol (ThermoTrace).” left out
# [4] = system: Blood monocytes from ApoE-/- mice (CD11b+); experiment: Transwell migration assay, blood monocytes; assay type: cell-based; conditions: 10 ng/ml in lower chamber, 2 hours, vs buffer alone
# Procedure: (§2) Monocyte cell migration was quantified in 24-well transwell inserts with polycarbonate filters (8-μm pore size) (Corning Costar). THP-1 monocytes (0.5×10^4 in 100 μl of RPMI 1640 medium) or murine blood cells from ApoE^-/- mice (25 μl in 75 μl of RPMI 1640 medium) were added to the upper chamber of the insert. The lower chamber contained 600 μl of RPMI 1640 with or without 10ng/ml tcOPN or OPN protein. The plates were incubated at 37° C. in 5% CO2 during 2 hours and migrated cells in the lower chamber were counted using flow cytometry. Blood monocytes were characterized with the monocyte FACS panel described above. In blocking experiment, tcOPN protein were pre-incubated with plasma (dilution 1:100) pooled from PADRE ctrl mice or tcOPN-PADRE mice over night at 4° C. prior to the migration experiment.
# [5] = system: human monocyte THP-1 cells; experiment: Transwell migration assay, THP-1; assay type: cell-based; conditions: 10 ng/ml in lower chamber, 2 hours, vs buffer alone or full-length OPN
# Procedure: as §2
substance,measurement,setting,value
AKFVAAWTLKAAA (PADRE),Plasma IFNγ,[1]; 8 week HFD,312 ± 225 pg/mL
same,Plasma IL-2,[1]; 8 week HFD,45 ± 15 pg/mL
same,Plasma IL-5,[1]; 8 week HFD,111 ± 56 pg/mL
same,Plasma IL-6,[1]; 8 week HFD,33 ± 35 pg/mL
same,Plasma IL-10,[1]; 8 week HFD,77 ± 32 pg/mL
same,Plasma IL-13,[1]; 8 week HFD,234 ± 129 pg/mL
same,Plasma IL-17,[1]; 8 week HFD,162 ± 62 pg/mL
same,Plasma TNFα,[1]; 8 week HFD,26 ± 0 pg/mL
same,Plasma MCP-1,"[1]; 8 week HFD, * significant difference PADRE vs tcOPN-PADRE",835 ± 187 pg/mL
same,Plasma IFNγ,[1]; 15 week HFD,48 ± 24 pg/mL
same,Plasma IL-2,[1]; 15 week HFD,43 ± 21 pg/mL
same,Plasma IL-4,[1]; 15 week HFD,21 ± 7 pg/mL
same,Plasma IL-5,[1]; 15 week HFD,110 ± 32 pg/mL
same,Plasma IL-6,[1]; 15 week HFD,28 ± 11 pg/mL
same,Plasma IL-10,[1]; 15 week HFD,172 ± 64 pg/mL
same,Plasma IL-13,[1]; 15 week HFD,1153 ± 439 pg/mL
same,Plasma IL-17,[1]; 15 week HFD,148 ± 27 pg/mL
same,Plasma MCP-1,[1]; 15 week HFD,703 ± 386 pg/mL
same,Plasma TNFα,[1]; 15 week HFD,712 ± 249 pg/mL
same,Antibodies (IgG) against the tcOPN-PADRE peptide,[2],did not develop antibodies
same,Antibodies recognizing PADRE peptide,[2],low levels
AKFVAAWTLKAAAGRGDSLAYGLR (PADRE-tcOPN short) [short tcOPN-PADRE peptide],"Plaque area in the aortic arch, en face preparations",[3],smaller plaque area
same,Subvalvular plaque area,[3],recapitulated the difference
"tcOPN: recombinant OPN cleaved with thrombin, C-terminal fragment removed (SLAYGLR)",Monocyte migration towards the protein,[4],increased migration
same,Monocyte migration towards the protein,[5],increased migration
